Legend:
[1] = NO free radical scavenging assay (sodium nitroprusside/Griess); conditions: mean ± SD; sodium nitroprusside, Griess reagent, 550 nm
Experimental: The assay was conducted following the method described in our previous study. A mixture of 10 mM sodium nitroprusside (20 µL), phosphate buffer (5 µL) and the test compound (5 µL) were incubated at 25 °C in a 96-well plate for 2.5 h. After incubation, 20 µL of Griess reagent (1.00 g of sulfanilic acid + 0.10 g naphthylethylene diamine dihydrochloride) was added to the previous mixture and allowed to stand for 30 min. […] Each experiment was performed in triplicate, and the average was taken. The average obtained from the absorbance readings was used to calculate the IC50 values in GraphPad prism from nonlinear regression dose–response curves.

[2] = system: human embryonic kidney (HEK293-T) cell line; test: MTT cytotoxicity assay, HEK293-T; conditions: Homo sapiens, HEK-293T, read-out: IC50 Hek293-T
[3] = MTT cytotoxicity assay, HEK293-T; conditions: human, HEK293-T cells
[4] = system: lung cancer (A549) cell line; test: MTT cytotoxicity assay, A549; conditions: for Cell viability percentage, A549: Table S3; for IC50: Homo sapiens, A549, read-out: IC50 A549
[5] = biological target: T1, human α-amylase (Homo sapiens, UniProt P04746); test: α-amylase inhibitor screening kit assay; assay type: biochemical; conditions: mean ± SD, triplicate; tested at 1, 5, 10, 25, 50 µM
T1 construct: purchased Abcam ab283391
T1 sequence (P04746 16-511): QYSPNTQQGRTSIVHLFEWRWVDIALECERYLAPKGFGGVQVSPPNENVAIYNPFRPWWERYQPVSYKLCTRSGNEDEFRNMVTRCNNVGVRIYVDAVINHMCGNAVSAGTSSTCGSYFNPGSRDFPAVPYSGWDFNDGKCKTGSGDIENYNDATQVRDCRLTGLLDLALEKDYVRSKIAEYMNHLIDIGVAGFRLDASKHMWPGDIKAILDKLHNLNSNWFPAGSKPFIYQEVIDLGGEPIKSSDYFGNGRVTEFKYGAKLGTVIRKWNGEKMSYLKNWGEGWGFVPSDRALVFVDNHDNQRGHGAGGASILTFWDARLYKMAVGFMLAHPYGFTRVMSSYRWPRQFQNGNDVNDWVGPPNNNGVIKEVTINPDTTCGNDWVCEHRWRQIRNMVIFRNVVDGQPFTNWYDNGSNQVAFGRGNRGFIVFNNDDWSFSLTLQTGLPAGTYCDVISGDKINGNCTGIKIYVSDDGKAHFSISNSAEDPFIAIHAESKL
Experimental: The α-amylase assay was performed in triplicate, using a 96-well plate following the procedure recommended by the manufacturer as outlined in the α-amylase inhibitor Screening Kit (Catalogue No. ab283391; Abcam). […] The average values obtained from the absorbance readings were used to determine the IC50 and standard deviation values in GraphPad prism from nonlinear regression dose–response curves.

[6] = system: breast cancer (MCF-7) cell line; test: MTT cytotoxicity assay, MCF-7; conditions: for Cell viability percentage, MCF-7: Table S2; for IC50: Homo sapiens, MCF7, read-out: IC50 MCF-7
[7] = biological target: T2, α-Glucosidase type 1 from baker's yeast (Saccharomyces cerevisiae, UniProt P53341); test: biochemical; conditions: IC50 α-Glucosidase, mean ± SD, triplicate; tested at 1, 5, 10, 25, 50 µM
T2 construct: purchased Sigma Aldrich (Pty) Ltd. G5003
T2 sequence (P53341 whole entry): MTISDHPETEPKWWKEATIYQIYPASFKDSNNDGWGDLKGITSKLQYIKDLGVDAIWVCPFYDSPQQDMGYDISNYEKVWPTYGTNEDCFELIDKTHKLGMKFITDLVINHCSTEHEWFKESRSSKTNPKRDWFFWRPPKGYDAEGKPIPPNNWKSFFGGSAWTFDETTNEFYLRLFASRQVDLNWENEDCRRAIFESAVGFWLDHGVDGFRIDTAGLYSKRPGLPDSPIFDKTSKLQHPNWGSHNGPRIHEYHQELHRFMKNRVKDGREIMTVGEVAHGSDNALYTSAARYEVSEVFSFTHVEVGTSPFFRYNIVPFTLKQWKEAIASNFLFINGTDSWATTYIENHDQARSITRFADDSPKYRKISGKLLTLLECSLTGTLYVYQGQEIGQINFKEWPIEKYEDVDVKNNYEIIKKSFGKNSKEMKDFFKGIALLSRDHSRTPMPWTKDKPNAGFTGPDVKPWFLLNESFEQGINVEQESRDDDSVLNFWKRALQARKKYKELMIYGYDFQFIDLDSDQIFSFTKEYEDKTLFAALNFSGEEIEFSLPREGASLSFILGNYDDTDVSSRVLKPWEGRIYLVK
Experimental: The assay was conducted in triplicate following a method described in our previous study. […] After pre-incubation, 17 µL of 2 mM PNP-G was added. The absorbances were recorded in a 96-well microplate at 400 nm using an Elisa plate reader (Varioskan Flash, ThermoFischer Scientific, Vantaa, Finland). The average values obtained from the readings were used to determine the IC50 and standard deviation values using a GraphPad Prism software (Version 8, GraphPad Software Inc., San Diego, CA, USA). The average values obtained from the absorbance readings were used to determine the IC50 and standard deviation values in GraphPad prism from nonlinear regression dose–response curves.

[8] = DPPH radical scavenging assay; conditions: mean ± SD; 45 min in the dark; 512 nm
Experimental: The DPPH radical scavenging assay was conducted following the procedure described in our previous study. The test compounds and ascorbic acid at various concentrations (ranging from 0 µM to 50 µM) in DMSO were mixed with a solution of DPPH (0.20 mM) in methanol and incubated in the dark for 45 min. Five absorbance readings were recorded at 512 nm using an Elisa plate reader (Varioskan Flash, ThermoFisher Scientific, Vantaa, Finland). The experiment was carried out in triplicate, and averaged values from the absorbance readings were used to determine the IC50 and standard deviation values in GraphPad prism from nonlinear regression dose–response curves.

[9] = system: NO generated from nitric oxide synthase (NOS); test: Inhibitory activity against NO generated from NOS (EnzyChrom kit); assay type: biochemical; conditions: mean ± SD, 1-50 µM
Experimental: A nitric oxide synthase (NOS) assay was performed following the procedure recommended by the manufacturer as outlined in the screening kit (Catalogue No. EINO-100; EnzyChrom). Various concentrations (1, 5, 10, 25 and 50 µM) of the compounds 3a, 3c, 3f, 3i, 3l, 3n and 3p and the reference standard, ascorbic acid, were prepared. The enzyme solution (12.5 U/mL NOS, 10 µL), assay buffer (25 µL) and test samples (5 µL) were incubated at room temperature for 15 min. After pre-incubation, 10 µL of reaction mix was added and incubated at 37 °C for 60 min. A 200 µL quantity of NO detection reagent was added, the detection reaction was run at 37 °C for 60 min, and absorbance was determined at a wavelength of 540 nm using an Elisa plate reader (Varioskan Flash, ThermoFisher Scientific, Vantaa, Finland). The average of three readings was used to calculate the NOS percentage inhibition using the following formula: % Inhibition=1−ΔOD Test Compd/ΔOD No Inhibitor ×100%
The IC50 values and standard deviation values were determined from nonlinear regression dose–response curve and compared with the results in GraphPad prism.

Row | Compound | IC50 [1] | IC50 [2] | viability at 1 µM [3] | viability at 5 µM [3] | viability at 10 µM [3] | viability at 25 µM [3] | viability at 50 µM [3] | Cell viability percentage, A549 ([4]; Conc. 1 (µM per method)) | Cell viability percentage, A549 ([4]; Conc. 5 (µM per method)) | IC50 [4] | IC50 [5] | Cell viability percentage, MCF-7 ([6]; Conc. 1 (µM per method)) | Cell viability percentage, MCF-7 ([6]; Conc. 5 (µM per method)) | Cell viability percentage, MCF-7 ([6]; Conc. 10 (µM per method)) | Cell viability percentage, MCF-7 ([6]; Conc. 25 (µM per method)) | Cell viability percentage, MCF-7 ([6]; Conc. 50 (µM per method)) | IC50 [6] | IC50 [7] | melting point | IC50 [8] | also measured
1 | CC1=[N+]([O-])C(c2ccccc2)Nc2c(Br)cc(I)cc21 (stereo not shown) [Compound 3m] | 55.39 ± 0.002 µM | 27.97 ± 0.08 µM | 81.2% | 75% | 51.1% | 42% | 19.1% | 78,1978% | 68,6691% | 16.34 ± 0.06 µM | 16.73 ± 0.01 µM | 25,998% | 24,1517% | 20,9415% | 20,6088% | 17,6314% | 15.34 ± 0.07 µM | 9.14 ± 0.03 µM | 180 to 181 °C | 8.88 ± 0.011 µM | Cell viability percentage, A549 ([4]; Conc. 10 (µM per method)): 61,413%; Cell viability percentage, A549 ([4]; Conc. 25 (µM per method)): 42,2995%; Cell viability percentage, A549 ([4]; Conc. 50 (µM per method)): 30,0709%
2 | COc1ccc(C2Nc3ccc(Br)cc3C(C)=[N+]2[O-])cc1 (stereo not shown) [Compound 3d] | 24.42 ± 0.004 µM | 37.53 ± 0.18 µM | 75.1% | 60.1% | 54.1% | 30.6% | 17.6% |  |  | 13.45 ± 0.03 µM | 54.08 ± 0.03 µM | 47,0559% | 46,8729% | 44,0286% | 43,2136% | 38,6394% | 13.68 ± 0.09 µM | 68.2 ± 0.01 µM | 194 to 196 °C | 9.55 ± 0.006 µM | 
3 | CC1=[N+]([O-])C(c2ccc(Cl)cc2)Nc2c(Br)cc(I)cc21 (stereo not shown) [Compound 3o] | 23.25 ± 0.002 µM | 58.98 ± 0.17 µM | 45.2% | 44.6% | 44.4% | 44.2% | 37.7% |  |  | 20 ± 0.05 µM | 49.18 ± 0.01 µM | 46,2908% | 41,6001% | 39,6041% | 38,7891% | 23,0428% | 16.5 ± 0.01 µM | 7.07 ± 0.04 µM | 140 to 142 °C | 88.45 ± 0.009 µM | 
4 | O=C1O[C@H]([C@@H](O)CO)C(O)=C1O [Ascorbic acid, ascorbic acid, reference compound] | 5.39 ± 0.005 µM |  |  |  |  |  |  |  |  |  |  |  |  |  |  |  |  |  |  | 5.02 ± 0.009 µM | IC50 [9]: 0.999 ± 0.006 µM
5 | CC1=[N+]([O-])C(c2ccc(F)cc2)Nc2c(I)cc(Br)cc21 (stereo not shown) [Compound 3j] | 5.17 ± 0.007 µM | 32.83 ± 0.06 µM | 67.6% | 72.8% | 54.5% | 33.9% | 19.4% | 79,064% | 67,1729% | 13.7 ± 0.12 µM | 17.48 ± 0.03 µM | 60,354% | 53,8289% | 40,413% | 30,7493% | 22,7375% | 15.06 ± 0.01 µM | 19.69 ± 0.01 µM | 170 to 173 °C | 61.01 ± 0.053 µM | Cell viability percentage, A549 ([4]; Conc. 10 (µM per method)): 57,7455%; Cell viability percentage, A549 ([4]; Conc. 25 (µM per method)): 42,6257%; Cell viability percentage, A549 ([4]; Conc. 50 (µM per method)): 29,7109%

From PMC10669220, “In Vitro α-Glucosidase and α-Amylase Inhibition, Cytotoxicity and Free Radical Scavenging Profiling of the 6-Halogeno and Mixed 6,8-Dihalogenated 2-Aryl-4-methyl-1,2-dihydroquinazoline 3-Oxides” (Antioxidants, 2023)
